One test has as its system TNFα. The test can be described thus: Cot Monocyte TNFα Cell Based Assay.
The target in a further test is Human Cot (Homo sapiens (Human), UniProt P41279). In words: High Throughput Cot Biochemical Assay.
Setting [1] is: Homo sapiens, Monocyte, read-out: EC50 TNF, LPS-stimulated human monocytes, TNFα TR-FRET.
[2] abbreviates: IC50 HTRF, Cot HTRF (TR-FRET KinEASE) biochemical assay, 400 μM ATP.
Where [3] appears, read: Homo sapiens, Monocyte, read-out: EC50 TNF, LPS-stimulated human monocytes, TNFα.
Setting [4] is: IC50 HTRF, Cot HTRF (TR-FRET) biochemical assay.
[5] abbreviates: read-out: EC50 TNF, LPS-stimulated human monocytes, TNFα.
[6] abbreviates: read-out: IC50 HTRF, Cot HTRF (TR-FRET) biochemical assay.

Structures are written as SMILES. Read-outs that look alike come from different tables or passages of the source.

23 compounds from patent US11066414B2, “Cot modulators and methods of use thereof” (Gilead Sciences, Inc., priority 2015, dated 2021) can be followed below.

Human Cot, sequence (P41279 30-397): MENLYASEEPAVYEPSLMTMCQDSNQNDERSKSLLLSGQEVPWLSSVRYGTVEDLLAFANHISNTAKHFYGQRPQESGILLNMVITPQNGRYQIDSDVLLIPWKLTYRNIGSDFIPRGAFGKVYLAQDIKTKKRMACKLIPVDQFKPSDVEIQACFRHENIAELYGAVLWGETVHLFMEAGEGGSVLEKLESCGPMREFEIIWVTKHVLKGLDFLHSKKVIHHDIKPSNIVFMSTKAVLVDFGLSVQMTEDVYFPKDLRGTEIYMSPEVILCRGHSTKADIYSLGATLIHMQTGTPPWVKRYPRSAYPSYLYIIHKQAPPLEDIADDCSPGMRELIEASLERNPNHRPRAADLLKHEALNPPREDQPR

With `C[C@@H](CF)n1cc([C@@H](Nc2cc(C#N)c3ncc(C#N)c(NCC(C)(C)C)c3c2)c2cccc3ncccc23)nn1` [Example 892, 6-(((S)-(1-((S)-1-fluoropropan-2-yl)-1H-1,2,3-triazol-4-yl)(quinolin-5-yl)methyl)amino)-4-(neopentylamino)quinoline-3,8-dicarbonitrile], the EC50 in the test with TNFα (setting [1]) came out at 44 nM. Also, the IC50 against Human Cot (setting [2]) amounted to 2 nM.
As for `Cc1nc(F)ccc1[C@H](Nc1cc(Cl)c2ncc(C#N)c(NCC3C(C)(C)C3(C)C)c2c1)c1cn(C2(C(F)F)CC2)nn1` [Example 733, (S)-8-chloro-6-(((1-(1-(difluoromethyl)cyclopropyl)-1H-1,2,3-triazol-4-yl)(6-fluoro-2-methylpyridin-3-yl)methyl)amino)-4-(((2,2,3,3-tetramethylcyclopropyl)methyl)-amino)quinoline-3-carbonitrile], the EC50 in the test on TNFα (setting [3]) is 835 nM. Further, 42 nM corresponded to half-maximal inhibition on Human Cot (setting [4]) (IC50).
On the same counts, the results for `CC(C)(C)CNc1c(C#N)cnc2c(C#N)cc(N[C@H](c3cn(C4(C(F)(F)F)CC4)nn3)c3cccn4nccc34)cc12` [Example 572, (S)-4-(neopentylamino)-6-((pyrazolo[1,5-a]pyridin-4-yl(1-(1-(trifluoromethyl)cyclo-propyl)-1H-1,2,3-triazol-4-yl)methyl)amino)quinoline-3,8-dicarbonitrile] are 79 nM and 4 nM.
On the same counts, the results for `Cc1nc([C@H](Nc2cc(C#N)c3ncc(C#N)c(NCC(C)(C)C)c3c2)c2cn(C3(C(F)F)CC3)nn2)c(C)o1` [Example 674, (S)-6-(((1-(1-(difluoromethyl)-cyclopropyl)-1H-1,2,3-triazol-4-yl)(2,5-dimethyloxazol-4-yl)methyl)amino)-4-(neopentylamino)quinoline-3,8-dicarbonitrile] are 301 nM and 22 nM.
In the case of `Cc1nc(F)ccc1[C@H](Nc1cc(C#N)c2ncc(C#N)c(NCC(C)(C)C)c2c1)c1cn(C2(C)CC2)nn1` [Example 492, (S)-6-(((6-fluoro-2-methylpyridin-3-yl)(1-(1-methylcyclopropyl)-1H-1,2,3-triazol-4-yl)methyl)amino)-4-(neopentylamino)-quinoline-3,8-dicarbonitrile], the EC50 in the test with TNFα (setting [3]) was 21 nM. In addition, on Human Cot (setting [4]), inhibition was half-maximal at 2 nM (IC50).
For `Cc1nnc(C2(n3cc([C@@H](Nc4cc(Cl)c5ncc(C#N)c(NCC(C)(C)C)c5c4)c4ccc(F)nc4C)nn3)CC2)o1` [Example 806, (S)-8-chloro-6-(((6-fluoro-2-methylpyridin-3-yl)(1-(1-(5-methyl-1,3,4-oxadiazol-2-yl)cyclopropyl)-1H-1,2,3-triazol-4-yl)methyl)amino)-4-(neopentylamino)quinoline-3-carbonitrile], in the test on TNFα (setting [1]), the EC50 stood at 28 nM. On Human Cot (setting [2]), this compound had an IC50 of 3 nM.
`CC(C)(C)n1cc([C@@H](Nc2cc(Cl)c3ncc(C#N)c(Nc4ccc(F)c(Cl)c4)c3c2)c2cocn2)nn1` [Example 310, (S)-6-(((1-(tert-butyl)-1H-1,2,3-triazol-4-yl)(oxazol-4-yl)methyl)amino)-8-chloro-4-((3-chloro-4-fluorophenyl)amino)-quinoline-3-carbonitrile]: the EC50 with TNFα (setting [3]) was 2340 nM. The compound also displayed an IC50 against Human Cot (setting [4]) of 40 nM.
On the same counts, the results for `CC(C)(C)N1CCC(n2cc([C@@H](Nc3cc(Cl)c4ncc(C#N)c(Nc5ccc(F)c(Cl)c5)c4c3)c3cccc4c3CNC4)nn2)CC1` [Example 59, (S)-6-(((1-(1-(tert-butyl)piperidin-4-yl)-1H-1,2,3-triazol-4-yl)(isoindolin-4-yl)methyl)amino)-8-chloro-4-((3-chloro-4-fluorophenyl)amino)quinoline-3-carbonitrile] are 892 nM and 2 nM.
On the same counts, the results for `CN(C)CCCn1cc([C@@H](Nc2cc(Cl)c3ncc(C#N)c(Nc4ccc(F)c(Cl)c4)c3c2)c2cscn2)nn1` [Example 360, (S)-8-chloro-4-((3-chloro-4-fluorophenyl)amino)-6-(((1-(3-(dimethylamino)propyl)-1H-1,2,3-triazol-4-yl)(thiazol-4-yl)methyl)-amino)quinoline-3-carbonitrile] are 151 nM and 4 nM.
For `C[C@@H](Nc1c(C#N)cnc2c(Cl)cc(N[C@H](c3cn(C4CCN(C(C)(C)C)CC4)nn3)c3csc4c3CCN(C3COC3)C4)cc12)c1ccccc1` [Example 237], the 50% effective concentration (EC50) with TNFα (setting [5]) came to 29 nM. The IC50 on Human Cot (setting [6]) was found to be 1 nM.
In the case of `Cc1nc(F)ccc1[C@H](Nc1cc(Cl)c2ncc(C#N)c(N[C@@H]3CCOCC3(C)C)c2c1)c1cn(C2(C(F)F)CC2)nn1` [Example 539, 8-chloro-6-(((S)-(1-(1-(difluoromethyl)-cyclopropyl)-1H-1,2,3-triazol-4-yl)(6-fluoro-2-methylpyridin-3-yl)methyl)-amino)-4-(((R)-3,3-dimethyltetrahydro-2H-pyran-4-yl)amino)quinoline-3-carbonitrile], in the test with TNFα (setting [3]), the EC50 is 12 nM. On Human Cot (setting [4]), the IC50 was determined as 1 nM.
On the same counts, the results for `CCC1(n2cc([C@@H](Nc3cc(Cl)c4ncc(C#N)c(NCC(C)(C)C)c4c3)c3ccc(F)nc3C)nn2)CC1` [Example 754, (S)-8-chloro-6-(((1-(1-ethylcyclopropyl)-1H-1,2,3-triazol-4-yl)(6-fluoro-2-methylpyridin-3-yl)methyl)amino)-4-(neopentylamino)quinoline-3-carbonitrile] are 31 nM and 3 nM.
On the same counts, the results for `Cc1nc(F)ccc1[C@H](Nc1cc(Cl)c2ncc(C#N)c(NCC(C)(C)C)c2c1)c1cn(C2(C(=O)O)CC2)nn1` [Example 517, (S)-1-(4-(((8-chloro-3-cyano-4-(neopentylamino)quinolin-6-yl)amino)(6-fluoro-2-methylpyridin-3-yl)methyl)-1H-1,2,3-triazol-1-yl)cyclopropane-1-carboxylic acid] are 1000 nM and 3 nM.
`CCN1CCc2c([C@H](Nc3cc(Cl)c4ncc(C#N)c(Nc5ccc(F)c(Cl)c5)c4c3)c3cn(C(C)C)nn3)csc2C1` [Example 344, (S)-8-chloro-4-((3-chloro-4-fluorophenyl)amino)-6-(((6-ethyl-4,5,6,7-tetrahydrothieno[2,3-c]pyridin-3-yl)(1-isopropyl-1H-1,2,3-triazol-4-yl)methyl)amino)quinoline-3-carbonitrile]: the EC50 with TNFα (setting [3]) is 151 nM. For the same compound, the IC50 against Human Cot (setting [4]) worked out at 3 nM.
Take `CC(C)(C)CNc1c(C#N)cnc2c(C#N)cc(N[C@H](c3cn(C4(C(F)F)CC4)nn3)c3ccc(F)c4ncccc34)cc12` [Example 671]: the EC50 in the test with TNFα (setting [5]) was found to be 32 nM. In addition, the IC50 at Human Cot (setting [6]) worked out at 2 nM.
Regarding `COc1c([C@@H](Nc2cc(Cl)c3ncc(C#N)c(NCC(C)(C)C)c3c2)c2ccc(F)nc2C)nnn1C` [Example 969, (S)-8-chloro-6-(((6-fluoro-2-methylpyridin-3-yl)(5-methoxy-1-methyl-1H-1,2,3-triazol-4-yl)methyl)amino)-4-(neopentylamino)quinoline-3-carbonitrile], the 50% effective concentration (EC50) in the test on TNFα (setting [1]) was 258 nM. Moreover, half-maximal inhibition against Human Cot (setting [2]) (IC50) was put at 8 nM.
On to `Cc1nc(F)ccc1[C@H](Nc1cc(Cl)c2ncc(C#N)c(N[C@@H]3CCOCC3(C)C)c2c1)C1=CN(C2(C3CC3)CC2)NN1` [Example 669], for which the EC50 with TNFα (setting [5]) was 7 nM. For the same compound, on Human Cot (setting [6]), the IC50 was 1 nM.
Take `COc1ccc(C(Nc2cc(Cl)c3ncc(C#N)c(NCC(C)(C)C)c3c2)c2cn(C3(C(F)(F)F)CC3)nn2)c(C)n1` (stereo not drawn) [Example 978, 8-chloro-6-(((6-methoxy-2-methylpyridin-3-yl)(1-(1-(trifluoromethyl)cyclopropyl)-1H-1,2,3-triazol-4-yl)methyl)amino)-4-(neopentylamino)quinoline-3-carbonitrile]: in the test on TNFα (setting [1]), the EC50 was found to be 303 nM. On Human Cot (setting [2]), half-maximal inhibition (IC50) was put at 9 nM.
With `Cc1nc(Cl)ccc1[C@H](Nc1cc(Cl)c2ncc(C#N)c(Nc3ccc(F)c(Cl)c3)c2c1)c1cn(C2COC2)nn1` [Example 321, (S)-8-chloro-6-(((6-chloro-2-methyl-pyridin-3-yl)(1-(oxetan-3-yl)-1H-1,2,3-triazol-4-yl)methyl)amino)-4-((3-chloro-4-fluorophenyl)amino)quinoline-3-carbonitrile], in the test with TNFα (setting [3]), the EC50 turned out to be 212 nM. Also, at Human Cot (setting [4]), the IC50 was 10 nM.
On the same counts, the results for `[2H][C@](Nc1cc(Cl)c2ncc(C#N)c(NCC(C)(C)C)c2c1)(c1ccc(F)nc1)c1cn(C2CC2)nn1` [Example 142, (S)-8-chloro-6-(((1-cyclopropyl-1H-1,2,3-triazol-4-yl)(6-fluoropyridin-3-yl)methyl-d)amino)-4-(neopentylamino)quinoline-3-carbonitrile] are 66 nM and 2 nM.
On to `Cn1ccc2c([C@H](Nc3cc(Cl)c4ncc(C#N)c(NCC(C)(C)C)c4c3)c3cn(C4(C(F)F)CC4)nn3)ccnc21` [Example 767, (S)-8-chloro-6-(((1-(1-(difluoromethyl)cyclopropyl)-1H-1,2,3-triazol-4-yl)(1-methyl-1H-pyrrolo[2,3-b]pyridin-4-yl)methyl)amino)-4-(neopentylamino)quinoline-3-carbonitrile], for which, in the test with TNFα (setting [3]), the EC50 is 209 nM. In addition, half-maximal inhibition at Human Cot (setting [4]) (IC50) was put at 18 nM.
On the same counts, the results for `CCN1CCC(n2cc([C@H](c3cccnc3)N(CC)c3cc(Cl)c4ncc(C#N)c(Nc5ccc(F)c(Cl)c5)c4c3)nn2)CC1` [Example 368, (S)-8-chloro-4-((3-chloro-4-fluorophenyl)amino)-6-(ethyl((1-(1-ethylpiperidin-4-yl)-1H-1,2,3-triazol-4-yl)(pyridin-3-yl)methyl)-amino)quinoline-3-carbonitrile] are 6300 nM and 649 nM.
As to `CC(C)(C)N1CCC(n2cc([C@@H](Nc3cc(Cl)c4ncc(C#N)c(NC5CCCCC5)c4c3)c3cccnc3)nn2)CC1` [Example 287, (S)-6-(((1-(1-(tert-butyl)piperidin-4-yl)-1H-1,2,3-triazol-4-yl)(pyridin-3-yl)methyl)amino)-8-chloro-4-(cyclohexylamino)quinoline-3-carbonitrile], the IC50 on Human Cot (setting [6]) came out at 20 nM.
